Test results taken from patent US12187749B2, “Application of dipyrrinato-iridium complexes in anti-tumor and anti-bacterial therapy” (BIOLITEC UNTERGEHMENSBETEILIGUNGS II AG, priority 2020, dated 2025).

How the values were obtained:
[1] = tested on: Staphylococcus aureus DSM 1104; experiment: Antibacterial testing (CFU/ml count) against S. aureus; assay type: cell-based; conditions: photosensitizer 100, 10 and 1 μM; for antibacterial activity against S. aureus in the absence of light: absence of light (dark toxicity control), 30 min incubation
Protocol: The organisms studied were Staphylococcus aureus DSM 1104, Gram-positive and Pseudomonas aeruginosa DSM 1117, Gram-negative. Cultures cells are suspended in sterile phosphate-buffered saline (PBS) or sterile PBS supplemented with 10% sterile horse blood serum. The bacterial suspensions are placed into sterile black well plates with clear bottoms. Concentrations of photosensitizer used in the study were as follows: 100 μM, 10 μM and 1 μM. After an incubation time period of 30 minutes, the samples are exposed to white light, with a power density and irradiation time resulting in an energy fluency of about 100 J/cm^2. Control plates contained no photosensitizer and are not exposed to laser light. The control samples for dark toxicity are only exposed to photosensitizer without any illumination. After irradiation, the samples are removed and suspended again in the culture media. The numbers of colony-forming units (CFU/ml) are enumerated after an adequate incubation time period.

[2] = tested on: HT 29 and other cell lines; experiment: Cell tests (XTT cell viability), dark toxicity, in HT 29 and other cell lines; assay type: cell-based; conditions: 2 or 10 μM photosensitizer, 24 h incubation, XTT assay
Protocol: The photosensitizing activity was determined in the following cell lines: • HT29 (human colon adenocarcinoma cell line) • L929 (mouse fibroblast cell line) • A431 (human epidermoid carcinoma cell line) • A253 (submaxillary salivary gland, epidermoid cell line) • CAL-27 (human tongue squamous cell carcinoma cell line) • J774A.1 (Mouse BALB/c monocyte macrophage).
The cell lines were grown in DMEM (c.c.pro GmbH) supplemented with 10% heat-inactivated fetal calf serum (FCS, c.c.pro GmbH), 1% penicillin (10000 IU) and streptomycin (10000 μg/ml, c.c.pro GmbH). Cells were kept as a monolayer culture in a humidified incubator (5% CO2 in air at 37° C.). A photosensitizer stock solution (2 mM) was performed in DMSO and was kept in the dark at 4° C. Further dilution was performed in DMEM medium without phenol red supplemented with 10% FCS to reach a final photosensitizer concentration of 2 or 10 μM, respectively. After seeding the cells in micro plates, the cells were incubated with fresh medium (DMEM without phenol red) containing 10% FCS with 2 or 10 μM of the photosensitizer for 24 h before light exposure. Before photosensitization, cells were washed, cell culture medium was exchanged with DMEM without phenol red and 10% FCS, then irradiated at room temperature with white light source at a fixed fluence rate of about 100 mW/cm^2 (50 J/cm^2). Following irradiation, cells were incubated in a humidified incubator (5% CO2 in air at 37° C.) for 24 h until cell viability assay. The cell viability was assessed by the XTT assay. 500 mg XTT (sodium 3′-[phenyl-aminocarbonyl)-3,4-tetrazolium]-bis(4-methoxy-6-nitro)benzene sulfonic acid, Applichem GmbH) is dissolved in 500 ml PBS-Buffer (without Ca^2+ and Mg^2) and sterile filtered. Solution was stored in the dark at −20° C. until use. A sterile solution containing PMS (N-methyl dibenzopyrazine methyl sulfate, Applichem GmbH) was needed as an activation reagent for the XTT. 0.383 mg PMS was dissolved in 1 ml PBS-Buffer. […] The absorbance of the samples was measured with a microplate reader (Infinite 200, Tecan Group Ltd.) at a wavelength of 490 nm.

Substance | antibacterial activity in the presence of complex media (serum addition) ([1]; PBS supplemented with 10% sterile horse blood serum) | antibacterial activity against S. aureus in the absence of light [1] | toxicity to cells in the absence of light (dark toxicity) [2]
Bis(2-phenylpyridyl){5-[2,3,5,6-tetrafluoro-4-(1′-thio-β-D-galactosyl)phenyl]-dipyrrinato}iridium(III) [Example 3.4] | antibacterial activity is also observed | high antibacterial activity | –
Bis(2-phenylpyridyl){5-[2,3,5,6-tetrafluoro-4-(1′-thio-β-D-glucosyl)phenyl]-dipyrrinato}iridium(III) [Example 3.3] | – | high antibacterial activity | –
Chlorido{5-[4-(N,N-dibutylamino)-3-nitrophenyl]dipyrrinato}(pentamethyl-cyclopentadienyl)iridium(III) [Example 1.6] | – | – | non-toxic
[5-(4-Butyloxy-2,3,5,6-tetrafluorophenyl)dipyrrinato]chlorido-(pentamethylcyclopentadienyl)iridium(III) [Example 1.3] | – | – | non-toxic
{5-[4-(N-2-Hydroxyethylamino)-2,3,5,6-tetrafluorophenyl]dipyrrinato}bis(2-phenyl-pyridyl)iridium(III) [Example 2.1] | – | high antibacterial activity | –
{5-[4-(N-Butylamino)-2,3,5,6-tetrafluorophenyl]dipyrrinato}chlorido-(pentamethylcyclopentadienyl)iridium(III) [Example 1.2] | – | – | non-toxic
